Reference: US20150105252A1, “SUBSTITUTED PYRAZOLES AS HERBICIDES” (E I DU PONT DE NEMOURS AND COMPANY, priority 2013, published 2015)

Key:
[1] = test system: crabgrass, large; experiment: Test A preemergence; format: in vivo, Digitaria sanguinalis; conditions: preemergence
Method in brief: (§1)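 After sowing in a sand–loam mix, pots received compound preemergence by directed soil spray, or postemergence once plants reached the one- to two-leaf stage (2–10 cm). Formulation contained surfactant in a non-phytotoxic solvent. Injury was scored visually after ~10 greenhouse days, 0–100 scale.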

[2] = test system: pigweed; experiment: Test A preemergence; format: in vivo, Amaranthus retroflexus; conditions: preemergence
Method in brief: as §1

[3] = test system: crabgrass, large; experiment: Test A postemergence; format: in vivo, Digitaria sanguinalis
Method in brief: as §1

[4] = test system: wheat; experiment: Test A postemergence; format: in vivo, Triticum aestivum
Method in brief: as §1

[5] = test system: corn; experiment: Test A postemergence; format: in vivo, Zea mays
Method in brief: as §1

[6] = test system: rice; experiment: Test B flood; format: in vivo, Oryza sativa; conditions: 250 g ai/ha, visual rating on 0 to 100 scale (0 no effect, 100 complete control), 13 to 15 days
Method in brief: (§2)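 Flooded-pot test: compound dosed into 3 cm of standing water above soil when plants had two leaves. Visual control ratings (0–100) versus untreated plants after 13–15 d.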

[7] = test system: ducksalad; experiment: Test B flood; format: in vivo, Heteranthera limosa; conditions: 250 g ai/ha, visual rating on 0 to 100 scale (0 no effect, 100 complete control), 13 to 15 days
Method in brief: as §2

[8] = test system: wheat; experiment: Test C preemergence; format: in vivo, Triticum aestivum
Method in brief: (§3)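 Herbicidal effect is expressed as percent visual control (0–100) judged against untreated plants 13 to 15 days after treatment in the greenhouse. Preemergence pots contained seeds in a soil–sand blend; postemergence plants, 2–18 cm tall, grew in peat-based planting medium.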

[9] = test system: galium; experiment: Test C preemergence; format: in vivo, Galium aparine
Method in brief: as §3

[10] = test system: lambsquarters; experiment: Test C preemergence; format: in vivo, Chenopodium album
Method in brief: as §3

[11] = test system: waterhemp; experiment: Test C preemergence; format: in vivo, Amaranthus rudis
Method in brief: as §3

[12] = test system: wheat; experiment: Test C postemergence; format: in vivo, Triticum aestivum; conditions: for Plant response rating (scale of 0 to 100 where 0 is no effect and 100 is complete control), Wheat: 31 g ai/ha, visually evaluated after 13 to 15 days; for Wheat plant response rating / Plant response rating, Wheat: postemergence; for Wheat plant response rating: 62 g ai/ha, scale 0 to 100
Method in brief: as §3

[13] = test system: lambsquarters; experiment: Test C postemergence; format: in vivo, Chenopodium album; conditions: for Plant response rating (scale of 0 to 100 where 0 is no effect and 100 is complete control), Lambsquarters: 31 g ai/ha, visually evaluated after 13 to 15 days; for Lambsquarters plant response rating / Plant response rating, Lambsquarters: postemergence; for Lambsquarters plant response rating: 62 g ai/ha, scale 0 to 100
Method in brief: as §3

[14] = test system: barnyardgrass; experiment: Test C postemergence; format: in vivo, Echinochloa crus-galli; conditions: for Plant response rating (scale of 0 to 100 where 0 is no effect and 100 is complete control), Barnyardgrass: 31 g ai/ha, visually evaluated after 13 to 15 days; for Barnyardgrass plant response rating / Plant response rating, Barnyardgrass: postemergence; for Barnyardgrass plant response rating: 62 g ai/ha, scale 0 to 100
Method in brief: as §3

[15] = 125 g ai/ha, visual injury, 0 to 100 scale, approx. 10 days
[16] = 500 g ai/ha, visual injury after approx. 10 days, 0 to 100 scale (0 no effect, 100 complete control)
[17] = Postemergence, 500 g ai/ha, visual rating after approx. 10 days, 0 to 100 scale (0 no effect, 100 complete control)
[18] = postemergence, 125 g ai/ha, about 10 days, visual rating on 0 to 100 scale (0 no effect, 100 complete control)
[19] = Preemergence, 16 g ai/ha, scale 0 to 100
[20] = preemergence, 31 g ai/ha, visual rating, scale 0 to 100 (0 no effect, 100 complete control), 13 to 15 days
[21] = preemergence, 62 g ai/ha, 13 to 15 days, scale 0 to 100, 0 = no effect, 100 = complete control
[22] = preemergence, 125 g ai/ha, scale 0 to 100, 0 is no effect, 100 is complete control
[23] = 125 g ai/ha, scale 0 to 100, 0 no effect, 100 complete control
[24] = 250 g ai/ha, scale 0 to 100 (0 no effect, 100 complete control)

SMILES	Crabgrass, Large plant response rating [1, 15]	Crabgrass, Large plant response rating [1, 16]	Pigweed plant response rating [2, 15]	Pigweed plant response rating [2, 16]	Crabgrass, Large plant response rating [3, 17]	Crabgrass, Large plant response rating [3, 18]	Wheat plant response rating [4, 17]	Wheat plant response rating [4, 18]	Corn plant response rating [5, 17]	Corn plant response rating [5, 18]	Plant response rating, Rice [6]	Plant response rating, Ducksalad [7]	Wheat plant response rating [8, 20]	Plant response rating, Wheat [8, 21]	Wheat plant response rating [8, 22]	Galium plant response rating [9, 20]	Plant response rating, Galium [9, 21]	Galium plant response rating [9, 22]	Lambsquarters plant response rating [10, 20]	Plant response rating, Lambsquarters [10, 21]	also measured
CCc1cc(C(=O)NOC(C)C)nn1Cc1ccnc(C(F)(F)F)c1 [Compound 101]	100	100	100	100	90	80	100	80	100	90	0	70	5	85	85	80	80	80	85	85	Plant response rating, Wheat [8, 19]: 0; Plant response rating, Galium [9, 19]: 80; Plant response rating, Lambsquarters [10, 19]: 85; Lambsquarters plant response rating [10, 22]: 95; Plant response rating, Waterhemp [11, 19]: 85; Waterhemp plant response rating [11, 20]: 95; Plant response rating, Waterhemp [11, 21]: 100; Waterhemp plant response rating [11, 22]: 100; Plant response rating (scale of 0 to 100), Wheat ([12]; Postemergence, 16 g ai/ha): 0; Plant response rating (scale of 0 to 100 where 0 is no effect and 100 is complete control), Wheat ([12]; Postemergence): 0; Wheat plant response rating [12]: 5; Plant response rating, Wheat [12, 23]: 5; Plant response rating (scale of 0 to 100), Lambsquarters ([13]; Postemergence, 16 g ai/ha): 50; Plant response rating (scale of 0 to 100 where 0 is no effect and 100 is complete control), Lambsquarters ([13]; Postemergence): 50; Lambsquarters plant response rating [13]: 65; Plant response rating, Lambsquarters [13, 23]: 75; Plant response rating (scale of 0 to 100), Barnyardgrass ([14]; Postemergence, 16 g ai/ha): 5; Plant response rating (scale of 0 to 100 where 0 is no effect and 100 is complete control), Barnyardgrass ([14]; Postemergence): 5; Barnyardgrass plant response rating [14]: 5; Plant response rating, Barnyardgrass [14, 23]: 5
CCc1cc(C(=O)NC(C)C)nn1Cc1ccnc(C(F)(F)F)c1 [Compound 103]	100	100	100	100	100	90	90	80	90	80	50	90	10	90	95	100	100	100	100	100	Plant response rating (scale of 0 to 100), Wheat ([8]; Preemergence, 250 g ai/ha): 98; Plant response rating (scale of 0 to 100), Galium ([9]; Preemergence, 250 g ai/ha): 100; Plant response rating (scale of 0 to 100), Lambsquarters ([10]; Preemergence, 250 g ai/ha): 100; Lambsquarters plant response rating [10, 22]: 100; Plant response rating (scale of 0 to 100), Waterhemp ([11]; Preemergence, 250 g ai/ha): 100; Waterhemp plant response rating [11, 20]: 100; Plant response rating, Waterhemp [11, 21]: 100; Waterhemp plant response rating [11, 22]: 100; Plant response rating (scale of 0 to 100 where 0 is no effect and 100 is complete control), Wheat ([12]; Postemergence): 0; Wheat plant response rating [12]: 5; Plant response rating, Wheat [12, 24]: 15; Plant response rating, Wheat [12, 23]: 5; Plant response rating (scale of 0 to 100 where 0 is no effect and 100 is complete control), Lambsquarters ([13]; Postemergence): 65; Lambsquarters plant response rating [13]: 70; Plant response rating, Lambsquarters [13, 24]: 90; Plant response rating, Lambsquarters [13, 23]: 75; Plant response rating (scale of 0 to 100 where 0 is no effect and 100 is complete control), Barnyardgrass ([14]; Postemergence): 10; Barnyardgrass plant response rating [14]: 15; Plant response rating, Barnyardgrass [14, 24]: 95; Plant response rating, Barnyardgrass [14, 23]: 15
